≈ marks a conversion by molar mass, not a printed value.

One may read the MIC as the smallest concentration in the dilution series that meets the test's criterion for growth inhibition. A low value points to a more susceptible organism.

Assay in all cases: ≥ marks a high value that may be exact or a test limit, other limits are often not marked, values filed in µg/mL are converted to µM
Test [1] deals with Candida albicans ATCC 90028.
Test [2] relates to Escherichia coli ATCC 25922.
Test [3] relates to Staphylococcus aureus NCTC 8325.
The test system of test [4] is Escherichia coli ATCC 25726.
Test [5] has as its system Staphylococcus aureus ATCC 25923.
The subject of the next test is Acinetobacter baumannii.

For the compound `CC[C@H](C)[C@H](NC(=O)CN)C(=O)N[C@@H](CC(C)C)C(=O)N[C@@H](CC(=O)O)C(=O)N[C@H](C(=O)N[C@H](C(=O)N[C@@H](CCCCN)C(=O)N[C@@H](CC(N)=O)C(=O)N[C@@H](C)C(=O)N[C@@H](C)C(=O)N[C@@H](CCCCN)C(=O)N[C@H](C(=O)N[C@H](C(=O)N[C@@H](C)C(=O)N[C@H](C(=O)NCC(=O)N[C@@H](CC(C)C)C(=O)N[C@@H](CC(C)C)C(=O)N[C@@H](CCC(=O)O)C(=O)N[C@@H](CCCCN)C(=O)N[C@H](C(=O)N[C@@H](CCCCN)C(=O)N[C@H]1CSSC[C@@H](C(=O)O)NC(=O)CNC(=O)[C@H]([C@@H](C)O)NC(=O)[C@H](CCSC)NC(=O)[C@H](CCCCN)NC1=O)[C@@H](C)CC)C(C)C)C(C)C)[C@@H](C)O)[C@@H](C)CC)[C@@H](C)O` [GILDTIKNAAKTVAVGLLEKIKCKMTGC], the MIC in test [1] was at least 150 µM; in test [2] it was 17 µM (≈ 49.6 µg/mL); in test [3] it was at least 70 µM.
Regarding `CSCC[C@H](NC(=O)[C@H](CCSC)NC(=O)[C@H](CCCCN)NC(=O)CNC(=O)[C@@H](NC(=O)[C@@H](NC(=O)[C@H](CCCCN)NC(=O)[C@H](CC(C)C)NC(=O)CNC(=O)[C@H](Cc1ccccc1)NC(=O)[C@H](CCCCN)NC(=O)[C@H](Cc1ccccc1)NC(=O)[C@H](C)NC(=O)[C@H](CCCCN)NC(=O)CNC(=O)[C@H](CC(C)C)NC(=O)[C@H](CC(C)C)NC(=O)[C@H](CO)NC(=O)CNC(=O)[C@H](CC(C)C)NC(=O)CN)[C@@H](C)O)C(C)C)C(=O)N[C@@H](C)C(=O)NCC(=O)N[C@@H](C)C(=O)N1CCC[C@H]1C(=O)N[C@@H](CCCN=C(N)N)C(=O)N[C@@H](CCC(=O)O)C(=O)N[C@@H](CCC(N)=O)C(=O)O` [GLGSLLGKAFKFGLKTVGKMMAGAPREQ], the MIC in test [4] turned out to be 12.5 µM (≈ 36.2 µg/mL); in test [1], 25 µM (≈ 72.3 µg/mL); in test [5], 6 µM (≈ 17.4 µg/mL).
For the compound `CC[C@H](C)[C@H](NC(=O)CNC(=O)[C@H](CCC(N)=O)NC(=O)[C@H](Cc1ccccc1)NC(=O)[C@@H](NC(=O)[C@H](CCCCN)NC(=O)[C@H](CCCCN)NC(=O)[C@H](CC(C)C)NC(=O)[C@H](C)NC(=O)[C@H](CC(N)=O)NC(=O)[C@H](CC(C)C)NC(=O)CN)C(C)C)C(=O)N[C@@H](Cc1cnc[nH]1)C(=O)N[C@@H](CCCCN)C(=O)N[C@@H](C)C(=O)N[C@H](C(=O)N[C@@H](CCCCN)C(=O)N[C@@H](CC(C)C)C(=O)N[C@H](C(=O)N[C@@H](CC(N)=O)C(=O)N[C@@H](CC(N)=O)C(=O)N[C@@H](Cc1cnc[nH]1)C(=O)N[C@H](C(=O)N[C@@H](CCC(N)=O)C(=O)O)C(C)C)[C@@H](C)CC)[C@@H](C)CC` [GLNALKKVFQGIHKAIKLINNHVQ], the results for the MIC in test [2] and in test [3] were 20 µM (≈ 53.7 µg/mL) and at least 40 µM, respectively.
Regarding `CC[C@H](C)[C@H](NC(=O)CN)C(=O)N[C@@H](Cc1c[nH]c2ccccc12)C(=O)N[C@@H](CCCCN)C(=O)N[C@H](C(=O)N[C@H](C(=O)N[C@@H](CCCCN)C(=O)N[C@@H](CO)C(=O)N[C@@H](CCSC)C(=O)NCC(=O)N[C@@H](CCCCN)C(=O)N[C@H](C(=O)N[C@@H](Cc1ccccc1)C(=O)N[C@@H](C)C(=O)NCC(=O)N[C@@H](C)C(=O)N[C@H](C(=O)N[C@@H](CC(C)C)C(=O)N[C@@H](CCC(N)=O)C(=O)N[C@@H](CC(N)=O)C(=O)N[C@@H](CC(C)C)C(N)=O)[C@@H](C)CC)C(C)C)[C@@H](C)CC)[C@@H](C)O` [GIWKTIKSMGKVFAGAILQNL], the MIC in test [4] is 12.5 µM (≈ 28.4 µg/mL); in test [1] it was 12.5 µM (≈ 28.4 µg/mL); with Acinetobacter baumannii, 12.5 µM (≈ 28.4 µg/mL); in test [5], 6.25 µM (≈ 14.2 µg/mL).
Turning to `CC[C@H](C)[C@H](NC(=O)CNC(=O)[C@H](CCCCN)NC(=O)[C@H](Cc1ccccc1)NC(=O)[C@@H](NC(=O)[C@H](CCCCN)NC(=O)[C@H](CCCCN)NC(=O)[C@H](CC(C)C)NC(=O)[C@H](C)NC(=O)[C@H](CCCCN)NC(=O)[C@H](CC(C)C)NC(=O)CN)C(C)C)C(=O)N[C@@H](Cc1cnc[nH]1)C(=O)N[C@@H](CCCCN)C(=O)N[C@@H](C)C(=O)N[C@H](C(=O)N[C@@H](CCCCN)C(=O)N[C@@H](CC(C)C)C(=O)N[C@H](C(=O)N[C@@H](CC(N)=O)C(=O)N[C@@H](CCCCN)C(=O)N[C@@H](Cc1cnc[nH]1)C(=O)N[C@H](C(=O)N[C@@H](CCCCN)C(=O)O)C(C)C)[C@@H](C)CC)[C@@H](C)CC` [GLKALKKVFKGIHKAIKLINKHVK], the MIC in test [2] came to 5 µM (≈ 13.6 µg/mL); in test [3], 20 µM (≈ 54.2 µg/mL).
For `CC[C@H](C)[C@H](NC(=O)[C@H](C)NC(=O)[C@@H]1CCCN1C(=O)[C@H](CC(C)C)NC(=O)[C@@H](N)Cc1ccccc1)C(=O)N[C@@H](C)C(=O)NCC(=O)N[C@@H](CCSC)C(=O)N[C@@H](C)C(=O)N[C@@H](C)C(=O)N[C@@H](CCCCN)C(=O)N[C@@H](Cc1ccccc1)C(=O)N[C@@H](CC(C)C)C(=O)N1CCC[C@H]1C(=O)N[C@@H](CCCCN)C(=O)N[C@H](C(=O)N[C@@H](Cc1ccccc1)C(=O)N[C@H]1CSSC[C@@H](C(=O)O)NC(=O)[C@H](CCCCN)NC(=O)[C@H](CCCCN)NC(=O)[C@H](CO)NC(=O)[C@H]([C@@H](C)CC)NC(=O)[C@H](C)NC1=O)[C@@H](C)CC` [FLPAIAGMAAKFLPKIFCAISKKC], the MIC in test [1] was determined as 10 µM (≈ 25.7 µg/mL); in test [2] it was 3 µM (≈ 7.7 µg/mL); in test [3], 1 µM (≈ 2.57 µg/mL).
`CC[C@H](C)[C@H](NC(=O)[C@H](C)NC(=O)[C@H](CC(C)C)NC(=O)[C@H](CC(N)=O)NC(=O)[C@H](CCCCN)NC(=O)[C@H](CC(C)C)NC(=O)[C@H](CO)NC(=O)[C@H](CC(=O)O)NC(=O)[C@H](CC(C)C)NC(=O)[C@H](CC(C)C)NC(=O)CN)C(=O)N[C@@H](CC(N)=O)C(=O)N[C@@H](C)C(=O)N[C@@H](C)C(=O)N[C@@H](CCCCN)C(=O)NCC(=O)N[C@@H](C)C(=O)NCC(=O)N[C@@H](CCC(N)=O)C(=O)N[C@@H](CO)C(=O)N[C@H](C(=O)N[C@@H](CC(C)C)C(=O)N[C@@H](CC(N)=O)C(=O)N[C@H](C(=O)N[C@@H](CC(C)C)C(=O)N[C@@H](CO)C(=O)N[C@H]1CSSC[C@@H](C(=O)O)NC(=O)[C@H]([C@@H](C)O)NC(=O)[C@H](CCCCN)NC(=O)[C@H](CO)NC(=O)[C@H](CC(C)C)NC(=O)[C@H](CCCCN)NC1=O)[C@@H](C)O)C(C)C` [GLLDSLKNLAINAAKGAGQSVLNTLSCKLSKTC]: the MIC in test [4] was at least 37.5 µM; in test [5], 18.8 µM (≈ 62.5 µg/mL).
In the case of `CSCC[C@H](NC(=O)[C@H](CC(C)C)NC(=O)[C@H](CO)NC(=O)CNC(=O)[C@H](C)NC(=O)[C@@H](NC(=O)[C@H](CC(N)=O)NC(=O)[C@H](CCCCN)NC(=O)[C@H](CC(C)C)NC(=O)[C@@H](NC(=O)[C@H](CC(N)=O)NC(=O)[C@H](CCCCN)NC(=O)CNC(=O)[C@@H](NC(=O)[C@H](CCCCN)NC(=O)[C@H](CCCCN)NC(=O)[C@H](Cc1ccccc1)NC(=O)[C@@H](NC(=O)[C@H](CC(N)=O)NC(=O)[C@H](Cc1ccccc1)NC(=O)[C@H](CC(C)C)NC(=O)CN)C(C)C)C(C)C)C(C)C)C(C)C)C(=O)N[C@@H](CC(=O)O)C(=O)N[C@@H](CC(N)=O)C(=O)N[C@@H](CC(C)C)C(=O)N[C@@H](CCCCN)C(=O)N[C@H]1CSSC[C@@H](C(=O)O)NC(=O)[C@H](CCC(=O)O)NC(=O)CNC(=O)[C@H](CO)NC(=O)[C@H](C(C)C)NC(=O)[C@H](CCCCN)NC1=O` [GLFNVFKKVGKNVLKNVAGSLMDNLKCKVSGEC], the MIC was 3 µM (≈ 10.6 µg/mL) in test [2] and at least 50 µM in test [3].
With `CC[C@H](C)[C@H](N)C(=O)N[C@@H](CC(C)C)C(=O)N1CCC[C@H]1C(=O)N[C@H](C(=O)N[C@@H](CC(C)C)C(=O)NCC(=O)N[C@@H](CC(N)=O)C(=O)N[C@@H](CC(C)C)C(=O)N[C@@H](CC(C)C)C(=O)N[C@@H](CC(N)=O)C(=O)N[C@@H](CO)C(=O)N[C@@H](CC(C)C)C(=O)N[C@@H](CC(C)C)C(N)=O)[C@@H](C)CC` [ILPILGNLLNSLL], the MIC was at least 100 µM in test [1], above 100 µM in test [2] and at least 100 µM in test [3].
Turning to `CC[C@H](C)[C@H](N)C(=O)N[C@H](C(=O)N[C@H](C(=O)N1CCC[C@H]1C(=O)N1CCC[C@H]1C(=O)N[C@H](C(=O)N[C@H](C(=O)N[C@@H](CCCCN)C(=O)N[C@@H](CC(=O)O)C(=O)N[C@H](C(=O)N[C@@H](CC(C)C)C(=O)N[C@@H](CCCCN)C(=O)N[C@@H](CCCCN)C(=O)N[C@@H](Cc1ccccc1)C(=O)N[C@@H](Cc1ccccc1)C(=O)N[C@@H](CCCCN)C(=O)NCC(=O)NCC(=O)N[C@H](C(=O)N[C@@H](C)C(=O)NCC(=O)N[C@H](C(=O)N[C@@H](CCSC)C(=O)NCC(=O)N[C@@H](CCC(N)=O)C(=O)O)C(C)C)[C@@H](C)CC)[C@@H](C)O)C(C)C)[C@@H](C)CC)[C@@H](C)CC)[C@@H](C)O` [ITIPPIVKDTLKKFFKGGIAGVMGQ], the figures for the MIC in test [4] and in test [5] were at least 40 µM and 40 µM (≈ 106 µg/mL), respectively.
Consider `CC[C@H](C)[C@H](NC(=O)CNC(=O)[C@H](CCC(N)=O)NC(=O)[C@H](Cc1ccccc1)NC(=O)[C@@H](NC(=O)[C@H](CCCCN)NC(=O)[C@H](CCCCN)NC(=O)[C@H](Cc1ccccc1)NC(=O)[C@H](C)NC(=O)[C@H](CC(N)=O)NC(=O)[C@H](CC(C)C)NC(=O)CN)C(C)C)C(=O)N[C@@H](Cc1cnc[nH]1)C(=O)N[C@@H](CCC(=O)O)C(=O)N[C@@H](C)C(=O)N[C@H](C(=O)N[C@@H](CCCCN)C(=O)N[C@@H](CC(C)C)C(=O)N[C@H](C(=O)N[C@@H](CC(N)=O)C(=O)N[C@@H](CC(N)=O)C(=O)N[C@@H](Cc1cnc[nH]1)C(=O)N[C@H](C(=O)N[C@@H](CCC(N)=O)C(=O)O)C(C)C)[C@@H](C)CC)[C@@H](C)CC` [GLNAFKKVFQGIHEAIKLINNHVQ], for which the MIC is 20 µM (≈ 54.4 µg/mL) in test [2] and at least 160 µM in test [3].
